Measurements from patent US20250116657A1, “HIGH-THROUGHPUT ASSAY FOR CELL MIGRATION, CHEMOTAXIS, AND FUNCTION” (GlaxoSmithKline Intellectual Property Development Limited, priority 2022, published 2025).

How the values were obtained:
Format in all cases: cell-based
[1] = tested on: HT29-GFP colorectal cancer cells; assay: HT29-GFP colorectal cancer cell killing within ECM-filled 2-lane Mimetas ORGANOPLATE (GFP cell debris image analysis); details: 10 μM, 5 days, 7-day old single cell colonies, 750 cells
Experimental: Single cells were seen to be uniformly dispensed across the microfluidic lanes and grew into single cell colonies over time.
2-lane Mimetas ORGANOPLATE® wells harboring 7-day old single cell colonies with either 500 cells or 750 cells were treated with 0 or 10 μM Bortezomib (sold under the brand name Velcade in the United States; CAS 179324-69-7) to observe cell killing within the channel over 5 days.

activated CD3+ T-cells = assay: Activated CD3+ T-cell chemotaxis through end-to-end collagen-matrigel ECM plug in 2-lane Mimetas ORGANOPLATE; details: for lowest concentration with robust chemotaxis response (migration length) compared to blank media control / lowest concentration with significantly higher total number of responding activated T-cells over blank media controls: 10,000 cells, 96 hours; for lowest concentration with robust chemotaxis response (migration length) compared to blank media control: chemokine refreshed at 48 hours; for lowest concentration with significantly higher total number of responding activated T-cells over blank media controls: one-way ANOVA
Experimental: 50 μl of 37° C. warmed 1×PBS were added to wells in columns 3, 7, 11, 15, 19 and 23 observation windows of Mimetas 2-lane ORGANOPLATE® and stored at 4° C. 5 μl of ice-cold 2 mg/ml collagen mixed with 10% (v/v) of low endotoxin matrigel GFR were added to wells in columns 4, 8, 12, 16, 20 and 24 of chilled Mimetas 2-lane ORGANOPLATE® to potentially create aligned collagen fibers within the microfluidic channels. After the ECM filled all the microfluidic channels, 1 μl of ice-cold ECM was quickly added to wells in columns 1, 2, 5, 6, 9, 10, 13, 14, 17, 18, 21, and 22 to allow for contact to be established between the ECM footprints. 4.5 ml of 37° C. warmed ultrapure water was added to both the ends of sterile MicroClime Environmental Lid and placed atop the Mimetas ORGANOPLATE®. The assembly was placed in a humidified 37° C. cell culture incubator for 45 minutes to ensure complete gelation of all the wells throughout the plate and used for the experiment.
After the gelation, 50 μl of blank media was added to the wells of columns 1, 5, 9, 13, 17 and 21 followed by 50 μl of the desired chemokine at different concentrations in wells of columns 4, 8, 12, 16, 20 and 24. 1:1000 (v/v) NUCLIGHT® Rapid Red dye stained and washed activated CD3+ T-cells were quickly added towards the mouth of the channel allowing increased deposition of cells closer to the mouth of the channel in the wells of column 2, 6, 10, 14, 18 and 22 in RPMI media with 0.5% FBS. CD3+ T-cells were activated for 48 hours prior the experiment with 1:500 (v/v) TRANSACT® beads with 20 IU/mL IL2 in RPMI media with 10% FBS. The ORGANOPLATE® was left undisturbed for 3-5 minutes to allow T-cell settling followed by placing them in humidified 37° C. incubator for the duration of the experiment. Chemokines were replaced as needed after 48 and 96 hours along with the 37° C. warmed ultrapure water within the sterile MicroClime Environmental Lid.
Wells from columns 2, 3, 4, 6, 7, 8, 10, 11, 12, 14, 15, 16, 18, 19, 20, 22, 23 and 24 were imaged in the far red and bright field channels at 4× magnification on days 0, 1, 2, 3, 4, 5 and 6 using an INCELL™ 6500 confocal microscope to identify the cells within the migrating channel. Z-stack of six images at different focal planes 50 μm apart spanning the thickness of the microfluidic channel were captured followed by maximum projection to create a singular image of the migratory channel. Images were then transferred to COLUMBUS™ image segmentation software to extract the X-Y location of the migratory CD3+ T-cells within the microfluidic channel. Area cut-offs and positive signal over background were used to accurately identify the fluorescent T-cells over the background.
The X-Y data of the CD3+ T-cells was transferred to SPOTFIRE™ analytics platform for image representation. The X axis location of the migratory T-cells across 4 different replicate wells were pooled and represented as a horizontal violin plot using the GRAPHPAD™ prism. Kruskal-Wallis test for statistical significance was used to understand the significance of a chemokine concentration in driving increased migration distance into the end-to-end solid ECM channel over blank media controls. Replicates were individually compared amongst each other to ensure significance between the sample and replicate and the lowest significance difference was represented in the graph. […]

naive CD3+ T-cells = assay: Naive CD3+ T-cell chemotaxis through ECM plug in 2-lane Mimetas ORGANOPLATE; details: 2.5 μM CXCR3 agonist
Experimental: Nuclight rapid red dye stained naive CD3+ T-cells were added closer to the mouth of the channel at the one end (well/frame 2 (102) of extracellular matrix (2 mg/mL collagen+10% (v/v) Matrigel GFR) filled within 2-lane Mimetas ORGANOPLATE®) to evaluate chemotaxis in response to the small molecule agonist applied to other end of the extracellular matrix plug (well/frame 4 (104)). Well/frame 1 (101) was filled with blank media. […] In order to enhance the adhesion of naïve T-cells to the extracellular matrix, 1 μg/mL of ICAM1 (Intercellular Adhesion Molecule 1, also known as Cluster of Differentiation 54 (CD54)) was also spiked into well/frame 2 of the assay system along with the T-cells. Chemotaxis potential was measured via confocal microscopy, identifying the number of naïve T-cells under migration in response to the chemokine gradient generated within the extracellular matrix.

| Molecule | lowest concentration with robust chemotaxis response (migration length) compared to blank media control (activated CD3+ T-cells) [nM] | lowest concentration with significantly higher total number of responding activated T-cells over blank media controls (activated CD3+ T-cells) [nM] | also measured |
| --- | --- | --- | --- |
| CC(C)C[C@H](NC(=O)[C@H](Cc1ccccc1)NC(=O)c1cnccn1)B(O)O [Bortezomib] |  |  | number of GFP cell debris aggregates (cell killing) versus 0 μM [1]: statistically significant increase |
| CXCL10: recombinant chemokine, R&D Systems catalog 266-IP | 37.5 | 150 |  |
| CXCL12: recombinant chemokine, R&D Systems catalog 350-NS | 37.5 | 18.75 | chemotaxis of activated CD3+ T-cells compared to 0 nM (activated CD3+ T-cells; 300 nM, 120 hours, cells in well 2, media in well 1, chemokine in well 4, refreshed after 48 hours): significantly higher chemotaxis |
| ICAM1: Intercellular Adhesion Molecule 1, also known as Cluster of Differentiation 54 (CD54) (protein, UniProt P05362 28-532, looked up) Intercellular adhesion …: QTSVSPSKVILPRGGSVLVTCSTSCDQPKLLGIETPLPKKELLLPGNNRKVYELSNVQEDSQPMCYSNCPDGQSTAKTFLTVYWTPERVELAPLPSWQPVGKNLTLRCQVEGGAPRANLTVVLLRGEKELKREPAVGEPAEVTTTVLVRRDHHGANFSCRTELDLRPQGLELFENTSAPYQLQTFVLPATPPQLVSPRVLEVDTQGTVVCSLDGLFPVSEAQVHLALGDQRLNPTVTYGNDSFSAKASVSVTAEDEGTQRLTCAVILGNQSQETLQTVTIYSFPAPNVILTKPEVSEGTEVTVKCEAHPRAKVTLNGVPAQPLGPRAQLLLKATPEDNGRSFSCSATLEVAGQLIHKNQTRELRVLYGPRLDERDCPGNWTWPENSQQTPMCQAWGNPLPELKCLKDGTFPLPIGESVTVTRDLEGTYLCRARSTQGEVTRKVTVNVLSPRYEIVIITVVAAAVIMGTAGLSTYLYNRQRKIKKYRLQQAQKGTPMKPNTQATPP |  |  | effect of addition on number of naive T-cells responding to the chemokine gradient (naive CD3+ T-cells; 1 μg/mL in well 2, 35000 cells): did not influence; impact of inclusion on chemotaxis outcome (naive CD3+ T-cells; 1 μg/mL in well 2, higher naive T-cell numbers (100,000-150,000)): non-significant impact |
